In patent publication US20240382610A1 (priority 2021, published 2024):

Key:
CD19+ B cells = assay: Free CpG activity on CD40 expression by CD19+ B cells in human PBMCs; assay type: cell-based; details: PBMC from three donors (D559, D804, D643)
Experimental: Trima residuals were received from Vitalant and diluted 1:2 with Phosphate Buffered Saline (PBS, Gibco). Diluted blood was split into two tubes and underplayed with 15 mL Ficoll-Paque (GE Healthcare). Tubes were centrifuged for 30 minutes at 400×g. PBMCs were collected from the interface, resuspended and washed in FACS buffer (PBS with 0.5% Bovine Serum Albumin (Gibco)). After one wash, PBMCs were resuspended in Complete RPMI (RPMI+10% FBS).
PBMCs were immediately plated onto a 96-well format (500K/well) in Complete RPMI. Five-fold serial dilutions were added to the cells from 1 uM to […] of CpG oligonucleotides at 37° C. under 5% CO2 for 48 hours. Cells were pelleted by centrifugation for five minutes at 400×g and stained at 4° C. in Fixable Viability Dye eFluor 780 (Thermo Fisher) diluted 1:4000 in PBS. Cells were centrifuged and stained at 4° C. in FACS buffer for 30 minutes containing FcR Blocking Reagent (Miltenyi Biotec), anti-CD19, anti-CD20, anti-CD40, anti-HLADR and anti-CD80. Cells were centrifuged and washed twice in FACS buffer and fixed in 0.5% paraformaldehyde. Cells were analyzed on Attune NxT Flow Cytometer (Thermo Fisher), with subsequent data analysis by Flowjo 10.7 (Treestar). Dead cells were excluded by gating on the eFluor 780-negative population. B cells were identified as CD19^+CD20^+cells and level of activation marker was assessed by median fluorescent intensity. […]

[1] = tested on: DLD-1 nectin-4 tumor cells; assay type: cell-based, human
[2] = tested on: Ramos-Blue Cells NF-kB/AP-1 Reporter B lymphocytes; assay: Ramos NFkb Reporter Assay; assay type: cell-based; details: 24 h stimulation, OD655

Substance: CpG 7-7: "CpG 7-7 (7-7b; SEQ ID NO:35)", free CpG oligonucleotide of series 7 (DNA NCGTCGTGTCGTTT; modified_base 1 OTHER; 5-Bromo-2'-deoxyuridine; modified_base 1..4 OTHER; phosphorothioate linkages; modified_base 4..5 OTHER; phosphotriester linker-PEG24-NH2; modified_base 5..9 OTHER; modified_base 9..10 OTHER; phosphorodithioate linkage; modified_base 10..14 OTHER; modified_base 13..14 OTHER; 2'-O-methyl-thymidine; misc_feature 14 3' spacer)
- activity as observed by CD40 expression (CD19+ B cells): higher activities
- phagocytosis of DLD-1 nectin-4 tumor cells by macrophages [1]: did not appear to result in detectable phagocytosis
- activity in NFkb reporter assay [2]: significantly higher activity
